Results on 26 molecules are retold here after ChEMBL document CHEMBL1208727, “Synthesis and pharmacological evaluation of aryl aminosulfonamide derivatives as potent 5-HT(6) receptor antagonists” (Bioorg Med Chem Lett, 2010).

Activity calls are given as the source filed them. Where only a bound is given, the exact number is not on record here.

Data set [1] concerns the target 5-hydroxytryptamine receptor 6 (Homo sapiens, UniProt P50406). The data set can be described thus: Binding affinity to human recombinant 5HT6 receptor expressed in CHO cells coexpressing pCRE-Luc assessed as inhibition of serotonin-induced increase in cAMP level by luciferase reporter gene assay. Type of data set: cell-based.
Data set [2] in a line: Metabolic stability in Wistar rat liver microsomes at […] after 30 mins. Type of data set: ADME, Microsome. The settings on record: read-out: Stability.
Another data set deals with Cytochrome P450 3A4 (Homo sapiens, UniProt P08684). The data set can be described thus: Inhibition of human CY3A4.
Another data set concerns the target Cytochrome P450 2D6 (Homo sapiens, UniProt P10635). The data set can be described thus: Inhibition of human CY2D6.
A short description of data set [3]: Metabolic stability in human liver microsomes at […] after 30 mins. Type of data set: ADME, Microsome. Conditions: read-out: Stability. On the technique in general: Liver microsomes are a subcellular fraction often used to study metabolism.
The species entered for data set [4] is Rattus norvegicus. The data set can be described thus: Cognitive enhancing effect against scopolamine-induced acquisition memory deficit in Wistar rat by morris water maze test. Format: functional, organism-based.
Data set [5] in a line: Oral bioavailability in Wistar rat at 10 mg/kg. Type of data set: ADME, organism-based. Conditions: in vivo.
Data set [6] can be described thus: Cmax in Wistar rat at 10 mg/kg, iv. Format: ADME, organism-based. Details: dose 10 mg/kg, route intravenous. Conditions: in vivo.
In data set [7] the test system is Rattus norvegicus. The data set can be described thus: Apparent volume of distribution in Wistar rat at 10 mg/kg, po. The settings on record: in vivo. Also noted: dose 10 mg/kg, route oral. Type of data set: ADME, organism-based.
The nature of data set [8]: Ratio of drug level brain to plasma in Wistar rat. Type of data set: ADME.
Data set [9] in a line: AUCt in Wistar rat at 10 mg/kg, po. Format: ADME, organism-based. Also noted: dose 10 mg/kg, route oral. The settings on record: plasma.
Data set [10] can be described thus: Clearance in Wistar rat at 10 mg/kg, po. Format: ADME, organism-based. Details: dose 10 mg/kg, route oral. Conditions: in vivo.
Data set [11] in a line: Half life in Wistar rat at 10 mg/kg, po. Details: dose 10 mg/kg, route oral. Type of data set: ADME, organism-based. The settings on record: in vivo.
For data set [12], the system named is Rattus norvegicus. The data set can be described thus: Cognitive enhancing effect in Wistar rat at 10 mg/kg, po by novel object recognition test. Also noted: dose 10 mg/kg. Type of data set: functional, organism-based.
Data set [13] in a line: Half life in Wistar rat at 10 mg/kg, iv. Format: ADME, organism-based. Details: dose 10 mg/kg, route intravenous. Conditions: in vivo.
Data set [14] can be described thus: Cmax in Wistar rat at 10 mg/kg, po. Format: ADME, organism-based. Also noted: dose 10 mg/kg, route oral. The settings on record: in vivo.
Data set [15] in a line: Clearance in Wistar rat at 10 mg/kg, iv. Conditions: in vivo. Also noted: dose 10 mg/kg, route intravenous. Format: ADME, organism-based.
Data set [16] can be described thus: Apparent volume of distribution in Wistar rat at 10 mg/kg, iv. The settings on record: in vivo, read-out: Vz. Details: dose 10 mg/kg, route intravenous. Format: ADME, organism-based.
A short description of data set [17]: AUCt in Wistar rat at 10 mg/kg, iv. Details: dose 10 mg/kg, route intravenous. The settings on record: plasma. Type of data set: ADME, organism-based.

5-hydroxytryptamine receptor 6, sequence (P50406 whole entry): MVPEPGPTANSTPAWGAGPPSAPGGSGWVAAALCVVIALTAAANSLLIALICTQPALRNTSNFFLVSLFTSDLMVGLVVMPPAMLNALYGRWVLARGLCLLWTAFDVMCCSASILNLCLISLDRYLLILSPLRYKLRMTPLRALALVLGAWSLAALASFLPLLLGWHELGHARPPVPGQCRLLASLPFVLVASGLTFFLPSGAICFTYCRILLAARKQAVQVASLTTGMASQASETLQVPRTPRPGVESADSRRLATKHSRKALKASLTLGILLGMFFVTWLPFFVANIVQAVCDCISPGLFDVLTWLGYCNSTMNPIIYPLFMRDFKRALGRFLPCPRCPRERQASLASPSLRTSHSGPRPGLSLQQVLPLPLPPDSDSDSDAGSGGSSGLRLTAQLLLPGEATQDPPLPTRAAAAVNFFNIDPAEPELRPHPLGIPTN
Cytochrome P450 3A4, sequence (P08684 whole entry): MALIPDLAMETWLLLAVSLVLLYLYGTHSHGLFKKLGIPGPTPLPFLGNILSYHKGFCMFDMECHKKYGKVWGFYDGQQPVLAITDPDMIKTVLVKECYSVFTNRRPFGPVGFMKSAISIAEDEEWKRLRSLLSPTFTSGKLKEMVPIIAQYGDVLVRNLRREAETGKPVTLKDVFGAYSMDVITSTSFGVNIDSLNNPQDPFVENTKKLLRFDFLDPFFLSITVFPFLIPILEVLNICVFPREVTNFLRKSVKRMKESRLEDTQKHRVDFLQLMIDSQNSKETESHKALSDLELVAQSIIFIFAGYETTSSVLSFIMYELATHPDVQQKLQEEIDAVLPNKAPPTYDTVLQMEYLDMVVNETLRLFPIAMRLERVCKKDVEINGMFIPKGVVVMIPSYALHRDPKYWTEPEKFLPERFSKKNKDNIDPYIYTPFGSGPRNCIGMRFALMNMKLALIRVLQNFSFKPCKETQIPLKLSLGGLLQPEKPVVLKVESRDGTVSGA
Cytochrome P450 2D6, sequence (P10635 whole entry): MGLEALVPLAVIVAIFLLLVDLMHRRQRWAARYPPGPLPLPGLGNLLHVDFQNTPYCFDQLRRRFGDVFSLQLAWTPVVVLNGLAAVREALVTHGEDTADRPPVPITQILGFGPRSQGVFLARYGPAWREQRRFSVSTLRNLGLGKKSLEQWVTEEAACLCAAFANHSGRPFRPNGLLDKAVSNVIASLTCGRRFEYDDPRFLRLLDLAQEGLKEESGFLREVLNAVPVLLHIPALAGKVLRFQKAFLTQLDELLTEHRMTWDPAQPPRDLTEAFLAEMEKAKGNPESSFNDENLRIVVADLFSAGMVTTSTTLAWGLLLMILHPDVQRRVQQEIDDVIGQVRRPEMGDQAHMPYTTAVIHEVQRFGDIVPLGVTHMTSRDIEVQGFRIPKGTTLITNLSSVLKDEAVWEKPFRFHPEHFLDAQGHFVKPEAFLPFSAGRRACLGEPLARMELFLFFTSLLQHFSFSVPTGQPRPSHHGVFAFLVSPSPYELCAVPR

With `COc1ccc(S(=O)(=O)NCCc2ccccc2Cl)cc1NC1CCN(C)CC1`, the Kb in data set [1] is 26 nM.

As for `Cc1ccc(NS(=O)(=O)c2cccc(NC3CCN(C)CC3)c2)c(C)c1`, the Kb in data set [1] is over 10000 nM.

Consider `COc1ccc(NS(=O)(=O)c2ccccc2OC(F)F)cc1N1CCNCC1`, for which the inhibitory constant (Ki) in [1] is under 10 nM. On to `CCc1ccc(S(=O)(=O)Nc2ccccc2Br)cc1NC1CCNCC1`, for which the Kb in [1] was found to be 0.1 nM. On the same count and under the same terms, the figure for `COc1ccc(S(=O)(=O)NCc2ccccc2)cc1N(C)C1CCNCC1` is 2.65 nM. Turning to `CCc1ccc(S(=O)(=O)Nc2ccccc2Br)cc1NC1CCN(C)CC1`, the remaining at 0.5 h, […] in [2] was 99%; in [3] it was 26%. In addition, the half-inhibitory concentration (IC50) on Cytochrome P450 3A4 was 9620 nM; on Cytochrome P450 2D6 it was over 45000 nM. For the same molecule, the Kb in data set [1] is 0.19 nM. With `COc1ccc(S(=O)(=O)Nc2ccccc2Cl)cc1NC1CCN(C)CC1`, in data set [1], the Kb turned out to be 0.584 nM. On the same count and under the same terms, the value for `COc1ccc(S(=O)(=O)Nc2ccccc2Br)cc1NC1CCN(C)CC1` was 0.296 nM; that for `COc1ccc(S(=O)(=O)Nc2ccccc2Br)cc1N(C)C1CCNCC1` was 0.2 nM. The same measure, in the same setting: the figure for `COc1ccc(NS(=O)(=O)c2cccc(NC3CCN(C)CC3)c2)c(OC)c1` is 10 nM.

Take `COc1ccc(S(=O)(=O)Nc2ccccc2Cl)cc1NC1CCNCC1`: the Kb in data set [1] was 0.48 nM. Same read-out and setting: the figure for `CCN(c1cc(S(=O)(=O)Nc2ccccc2)ccc1OC)C1CCN(C)CC1` is 18.6 nM; for `CN1CCC(Nc2cccc(S(=O)(=O)Nc3c(F)cc(F)cc3Br)c2)CC1` it is over 10000 nM; for `COc1ccc(S(=O)(=O)Nc2ccccc2Cl)cc1N(C)C1CCNCC1` it is 0.86 nM. Still for that read-out and setting: the value for `COc1ccc(S(=O)(=O)NCc2ccccc2)cc1NC1CCN(C)CC1` was 3.36 nM.

`COc1ccc(S(=O)(=O)NCc2ccccc2)cc1NC1CCNCC1`: the Kb in data set [1] came out at 4.26 nM. Same read-out and setting: the value for `COc1ccc(S(=O)(=O)Nc2ccccc2)cc1NC1CCN(C)CC1` was 1.23 nM. On to `CN1CCC(Nc2cccc(S(=O)(=O)Nc3ccc(Br)cc3F)c2)CC1`, for which the Kb in [1] worked out at 12.2 nM.

For `COc1ccc(S(=O)(=O)Nc2cc(Cl)cc(Cl)c2OC)cc1NC1CCN(C)CC1`, the remaining at 0.5 h, […] was found to be 77% in data set [2] and 21% in data set [3]. Besides, the outcome in the data set listed under Rattus norvegicus [4] and in the data set on Rattus norvegicus [12] was Active. This molecule registered a bioavailability in data set [5] of 38%. Moreover, the IC50 turned out to be 8440 nM against Cytochrome P450 3A4 and 41700 nM on Cytochrome P450 2D6. Also, in data set [1], the Kb amounted to 0.02 nM. The Cmax in [6] amounted to 1.92 µg/mL; in data set [14], 0.536 µg/mL. Further, the Vz with Rattus norvegicus [7] was 34.332 L/kg. Also, the Kp in data set [8] worked out at 0.08. The AUC(0-t) in [9] is 0.941 µg·h/mL; in data set [17], 2.53 µg·h/mL. In data set [10], this molecule had an apparent clearance (CL/F) of 12.4 L/h/kg. The half-life in data set [11] is 1.72 h; in data set [13], 2.96 h. In [15], this molecule had a clearance of 3.93 L/h/kg. Moreover, in data set [16], the Vd was 16.9 L/kg. As to `COc1ccc(S(=O)(=O)Nc2cc(C)ccc2OC)cc1NC1CCN(C)CC1`, the Kb in [1] came out at 0.02 nM. Regarding `CCc1ccc(S(=O)(=O)Nc2cc(Cl)cc(Cl)c2OC)cc1NC1CCN(C)CC1`, in [1], the Kb came out at 1.65 nM. On the same count and under the same terms, the figure for `COc1ccc(S(=O)(=O)NCCc2ccccc2Br)cc1NC1CCN(C)CC1` is 38 nM; for `COc1ccc(S(=O)(=O)Nc2ccccc2Br)cc1NC1CCNCC1` it is 0.6 nM; for `COc1ccc(S(=O)(=O)NCc2ccccc2)cc1N(C)C1CCN(C)CC1` it is 3.9 nM. On the same count and under the same terms, the figure for `Cc1ccc(S(=O)(=O)Nc2ccccc2Br)cc1NC1CCN(C)CC1` is 1.31 nM. Same read-out and setting: the value for `COc1ccc(OC)c(NS(=O)(=O)c2cccc(NC3CCN(C)CC3)c2)c1` was 16 nM.

Usually Ki stands for a dissociation constant, usually derived from enzyme kinetics or from competition with a known ligand. One may read the IC50 as the concentration that gives 50% inhibition. A low value points to inhibition by little substance. Broadly, the bioavailability is dose-corrected exposure relative to a reference, in per cent. The low end stands for poor availability, the high end for good availability. Broadly, the Cmax is the maximum level reached in the sampled fluid or tissue. In general, Kp refers to the ratio of the level in a tissue or fluid to that in plasma or blood. By AUC(0-t) is commonly meant exposure summed from dosing to a finite time, without extrapolation to infinity. A low value points to low exposure. The CL/F is the apparent clearance, not corrected for the fraction that reaches the circulation. As a reminder, the half-life is the time needed for the level to fall by half in the phase considered. A word on the clearance: it is a measure of how efficiently the substance is removed, as volume per time. Lower therefore signals inefficient removal.
